This is an account of results in publication PMC9697187 (Viruses, 2022).

A word on the EC50: it is the concentration giving half of the maximal effect. In general, Cmax refers to the maximum level reached in the sampled fluid or tissue. What is called half-life is how long it takes for the measured level to halve. Low readings indicate rapid decline, high ones slow decline. As a reminder, the CL/F is the apparent clearance, not corrected for the fraction that reaches the circulation. Usually MRT stands for the average time that molecules of a dose stay in the body. One may read the AUC as concentration integrated over time. Broadly, the CC50 is the concentration that lowers cell viability or growth by half.

Molecules are shown by their SMILES. Read-outs that look alike come from different tables or passages of the source.

Data set [1] deals with FIPV serotype I (Black I). Description: Colorimetric CPE bioassay. In kind it is cell-based, feline infectious peritonitis virus (FIPV). The conditions noted are these: for EC50: read-out: EC50 against Black I (serotype I FIPV).
For data set [2], the system named is FIPV serotype II (WSU-79-1146). Description: Combined anticoronaviral therapy. In kind it is cell-based, feline infectious peritonitis virus (FIPV). Conditions: WSU-79-1146, CRFK cells, alone and combined determined concurrently.
The subject of the next data set is FIPV II. The conditions noted are these: cited from earlier work.
The subject of data set [3] is feline infectious peritonitis (FIP). Conditions: cited from earlier work; for Cats clinically cured of FIP: retrospective study, treated with either GC376 or GS-441524.
The test system of data set [4] is FIPV serotype II (WSU-79-1146). Description: Colorimetric CPE bioassay. Type of data set: cell-based, feline infectious peritonitis virus (FIPV). The conditions noted are these: for EC50: read-out: EC50 against WSU-79-1146 (serotype II FIPV).
A short description of another data set: in vivo. Set-up: species or system cat. Conditions: male; for Cmax: Cmax of GS-441524.
On the set-up of data set [5]: method as in not printed at the place. The conditions noted are these: read-out: Cmax of GS-441524; subcutaneously administered at 5 mg/kg, cats; ref not given; cited from earlier work.
A short description of data set [6]: Single dose pharmacokinetics of orally administered MPV in SPF cats. In kind it is in vivo, cat.
The next data set relates to CEM/C1 human cell line. Conditions: cited from earlier work.
The test system of another data set is CRFK cells. Conditions: cited from earlier work.
Setting [7] is: FCWF-4 CU cells, MOI 0.1, 72 h, monotherapy.
Where [8] appears, read: clinical trial, naturally occurring FIP.
[9] abbreviates: Alphacoronavirus 1, FCWF-4 CU cells, MOI 0.1, 72 h, monotherapy.
Where [10] appears, read: owner survey, unlicensed GS-441524.
The mark [11] stands for this setting: Alphacoronavirus 1, read-out: EC50, combination experiment (A) nirmatrelvir and MPV.
[12] abbreviates: male, serum, po, 10 mg/kg, 10 mg/kg oral molnupiravir, mean of 3 cats.
Where [13] appears, read: serum MPV, 10 mg/kg oral molnupiravir, mean of 3 cats, 10 mg/kg.
[14] abbreviates: Alphacoronavirus 1, CRFK cells, MOI 0.1, 72 h, monotherapy.
Where [15] appears, read: Alphacoronavirus 1, read-out: EC50, combination experiment (C) remdesivir and nirmatrelvir.

On to `CC(C)C[C@H](NC(=O)OCc1ccccc1)C(=O)N[C@@H](CC1CCNC1=O)C(O)S(=O)(=O)O` (stereo partly shown) [GC376], for which the 50% effective concentration (EC50) was 10 nM in [1] (setting [7]); 406 nM in [2] (read-out: EC50, combination experiment (B) GC376 and remdesivir); 900 nM in the data set with FIPV II (prior study, read-out: EC50 against FIPV II).
On to `CC(C)C[C@H](NC(=O)OCc1ccccc1)C(=O)N[C@@H](C[C@@H]1CCNC1=O)C(O)S(=O)(=O)[O-].[Na+]` (stereo partly shown) [GC376], for which, in [3] (setting [8]), the Cats in remission entry is on record as “seven of the 20”. In addition, the “Cats clinically cured of FIP” value in data set [3] is reported as 29 of 30.
For the molecule `N#C[C@@]1(c2ccc3c(N)ncnn23)O[C@H](CO)[C@@H](O)[C@H]1O` [GS-441524], the EC50 in [1] (setting [9]) was 20 nM; in data set [4] (Alphacoronavirus 1, CRFK, 72 h), 610 nM; in the data set on FIPV II (previously reported, read-out: EC50 against serotype II FIPV), 780 nM. In “in vivo” (cat, GS-441524 remaining in plasma 24 h post-treatment), this molecule gave a concentration at 24 h of 0.22 to 2 µM. Further, the AUC(0-t) was 45 µM·h in “in vivo” (iv, 7 mg/kg, AUC0-24 of GS-441524) and 89700 ng·h/mL in the data set “in vivo” (po, 25 mg/kg, AUC (AUC0-24) of GS-441524). Also, the highest concentration (Cmax) in “in vivo” (iv, 7 mg/kg) was 6.9 µM; in “in vivo” (po, 25 mg/kg), 13300 ng/mL; in data set [5] it was roughly 10 µM. Moreover, in the data set “in vivo” (po, 25 mg/kg, T1/2 of GS-441524), the half-life was 4.5 h. Moreover, the “Cats healthy and disease free at the time of publication” value in [3] (setting [8]) is on record as 25 of 31. The “Cats with successful resolution of disease” value in [3] (neurological FIP, escalating dose) was 3 of 4. In data set [3] (owner survey responses), the “Cats with neurological or ocular signs successfully treated” value is recorded as 161 of 169. Besides, the “Cats alive at the time of publication” value in data set [3] (owner survey, unlicensed GS-441524, n = 380) is 96.7%. In data set [3] (setting [10]), the Cats considered cured is on record as 54.0%. Also, in [3] (setting [10]), the “Cats still being monitored in the 12-week observation period” value is recorded as 43.3%. Besides, the “Cats clinically cured of FIP” value in data set [3] is 29 of 30.
As to `CC(C)C(=O)OC[C@H]1O[C@@H](n2ccc(NO)nc2=O)[C@H](O)[C@@H]1O` [MPV, molnupiravir], the EC50 in data set [1] (setting [9]) worked out at 16 nM; in data set [4] (Alphacoronavirus 1, CRFK, 72 h) it was 700 nM; in data set [2] (setting [11]), 693 nM. In addition, the “Detection of MPV in serum over 24 h” value in data set [6] (10 mg/kg oral MPV) is reported as “not detected after the 12-h time point”. Further, in data set [6] (10 mg/kg oral MPV, Figure 3B), the “Peak detection time point in serum, aggregate of three cats” value was “approximately 1.5 h”. In data set [6] (setting [12]), this molecule showed a CL/F of 347 L/h/kg. In data set [6] (setting [12]), this molecule returned a mean residence time (MRT) of 4.6 h. The AUC(0-t) in [6] (male, serum, po, 10 mg/kg, 10 mg/kg oral molnupiravir, mean of 3 cats, read-out: AUC0-t of MPV) was found to be 0.085 µM·h; in data set [6] (male, serum, po, 10 mg/kg, serum MPV, 10 mg/kg oral molnupiravir, mean of 3 cats, read-out: AUC (AUC0-t) of MPV) it was 27.5 ng·h/mL. The Vd/F in data set [6] (male, serum, po, 10 mg/kg, 10 mg/kg oral molnupiravir, mean of 3 cats, read-out: Vz/F of MPV) came out at 881 L/kg. For the same molecule, the AUC in [6] (male, serum, po, 10 mg/kg, serum MPV, 10 mg/kg oral molnupiravir, individual cat) came to 39.6 ng·h/mL. Further, the “AUC (AUC0-t) of MPV” value in data set [6] (setting [13]) is 27.5 ng·h/mL. In data set [6] (setting [13]), this molecule showed a Cmax of 0.04 µM. Moreover, the “Cmax of MPV” value in data set [6] (setting [13]) is reported as 14.2 ng/mL.
On to `O=c1nc(NO)ccn1[C@@H]1O[C@H](CO)[C@@H](O)[C@H]1O` [NHC, β-D-N^4-hydroxycytidine], for which the EC50 worked out at 50 nM in data set [1] (setting [7]) and 110 nM in data set [4] (CRFK cells, MOI 0.1, 72 h, monotherapy). For the same molecule, in data set [1] (equivalent of 0.05 μM), the “EC50 against Black I expressed as” value came out at 0.0129 µg/mL. Also, the “Serum exposure relative to the NHC EC50” value in data set [6] (in vivo) is on record as “greater than the NHC EC50”. The “Kel of NHC” value in data set [6] (in vivo, po, 10 mg/kg) came out at 0.2 h⁻¹. In addition, the cytotoxic concentration (CC50) in the data set with CEM/C1 human cell line is 7500 nM. In the data set with CRFK cells, the “Cytotoxicity in CRFK cells” value is given as “cytotoxicity has also been documented”.
In the case of `CCC(CC)COC(=O)[C@H](C)N[P@](=O)(OC[C@H]1O[C@@](C#N)(c2ccc3c(N)ncnn23)[C@H](O)[C@@H]1O)Oc1ccccc1` [RDV, remdesivir], the EC50 in data set [1] (setting [9]) is 30 nM; in data set [4] (setting [14]) it was 180 nM; in data set [2] (Alphacoronavirus 1, read-out: EC50, combination experiment (B) GC376 and remdesivir) it was 181 nM; in data set [2] (setting [15]), 6420 nM.
As to `CC(C)(C)[C@H](NC(=O)C(F)(F)F)C(=O)N1C[C@H]2[C@@H]([C@H]1C(=O)N[C@H](C#N)C[C@@H]1CCNC1=O)C2(C)C` [nirmatrelvir], the EC50 in data set [1] (Alphacoronavirus 1, 72 h) stood at 16 nM; in data set [4] (setting [14]), 1310 nM; in [2] (setting [11]) it was 1310 nM; in data set [2] (setting [15]), 2940 nM. The “Differential efficacy, EC50 for FIPV I relative to FIPV II” value in data set [4] (Black I vs WSU-79-1146) was roughly 100 fold.
